# Tests used:
# M4 muscarinic receptor = molecular target: T1, M4 muscarinic receptor (Homo sapiens, UniProt P08173); experiment: Functional mobilization of intracellular calcium (FLIPR) in M4-CHO cells; assay type: cell-based; conditions: M4 receptor, calcium mobilization; for Emax: read-out: M4 Efficacy
# T1 construct: expressed in transfected cells; host or cells: CHO (M4-CHO)
# T1 sequence (P08173 1-479): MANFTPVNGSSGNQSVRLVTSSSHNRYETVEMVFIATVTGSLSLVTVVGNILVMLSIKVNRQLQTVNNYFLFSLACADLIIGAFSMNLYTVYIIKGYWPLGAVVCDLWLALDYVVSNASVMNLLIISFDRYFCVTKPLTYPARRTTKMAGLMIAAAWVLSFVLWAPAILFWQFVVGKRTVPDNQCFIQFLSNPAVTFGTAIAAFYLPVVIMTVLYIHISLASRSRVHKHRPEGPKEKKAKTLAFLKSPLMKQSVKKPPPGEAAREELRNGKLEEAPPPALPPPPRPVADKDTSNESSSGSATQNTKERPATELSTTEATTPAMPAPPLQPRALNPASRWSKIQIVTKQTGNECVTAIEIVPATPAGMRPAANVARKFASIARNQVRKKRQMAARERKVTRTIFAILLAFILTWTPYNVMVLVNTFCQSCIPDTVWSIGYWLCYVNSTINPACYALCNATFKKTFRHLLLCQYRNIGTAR
# Outline: (§1)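 Measured via Fluo-3 fluorescence on a FLIPR, CHO cells with either muscarinic subtype received compound in 0.5% DMSO. Antagonism was assessed after 15 min pre-incubation followed by carbachol at each subtype's EC80; agonism from compound addition alone.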
# M1 muscarinic receptor = molecular target: T2, M1 muscarinic receptor (Homo sapiens, UniProt P11229); experiment: Functional mobilization of intracellular calcium (FLIPR) in M1-CHO cells; assay type: cell-based; conditions: M1 receptor, calcium mobilization; for Emax: read-out: M1 Efficacy
# T2 construct: expressed in transfected cells; host or cells: CHO (M1-CHO)
# T2 sequence (P11229 1-460): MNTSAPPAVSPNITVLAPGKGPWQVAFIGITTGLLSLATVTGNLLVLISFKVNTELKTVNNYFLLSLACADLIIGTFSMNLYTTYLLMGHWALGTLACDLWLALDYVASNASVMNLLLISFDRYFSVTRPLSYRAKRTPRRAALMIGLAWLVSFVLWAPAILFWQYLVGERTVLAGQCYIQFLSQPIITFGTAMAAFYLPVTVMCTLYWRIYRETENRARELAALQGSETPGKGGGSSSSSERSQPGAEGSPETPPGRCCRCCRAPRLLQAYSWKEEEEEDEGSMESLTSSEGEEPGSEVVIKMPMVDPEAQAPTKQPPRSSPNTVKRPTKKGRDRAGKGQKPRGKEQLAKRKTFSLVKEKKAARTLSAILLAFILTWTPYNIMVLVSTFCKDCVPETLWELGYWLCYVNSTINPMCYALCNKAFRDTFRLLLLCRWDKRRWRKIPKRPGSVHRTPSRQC
# Outline: as §1
SMILES,M4 Activity (M4 muscarinic receptor),Emax (M4 muscarinic receptor),M1 Activity (M1 muscarinic receptor),Emax (M1 muscarinic receptor)
CCOC(=O)N1CCC(N2CCC3(CC2)CN(C(=O)c2ccccc2F)c2ccc(F)cc23)CC1 [compound 267],x (activity was measured to be greater than 1.0 μM),< 65%,x (activity was measured to be greater than 1.0 μM),< 65%
CC(=O)N1CC2(CCN(C3CCOCC3)CC2)c2cc(F)ccc21 [compound 268],x (activity was measured to be greater than 1.0 μM),< 65%,x (activity was measured to be greater than 1.0 μM),< 65%
CC(=O)N1CC2(CCN(C3CCN(C(=O)OC(C)C)CC3)CC2)c2cc(F)ccc21 [compound 269],xxx (activity was measured to be less than 0.1 μM),> 85%,xxx (activity was measured to be less than 0.1 μM),65 to 85%
CCCCC(=O)N1CC2(CCN(C3CCN(C(=O)OCC)CC3)CC2)c2cc(F)ccc21 [compound 270],xxx (activity was measured to be less than 0.1 μM),> 85%,xxx (activity was measured to be less than 0.1 μM),65 to 85%
O=C(OC1CCCC1)N1C2CCC1CC(N1CCC3(CC1)C(=O)Nc1ccccc13)C2 (stereo not shown) [compound 271],xxx (activity was measured to be less than 0.1 μM),< 65%,xxx (activity was measured to be less than 0.1 μM),65 to 85%
c1ccc2c(c1)NCC21CCN(C2CC3CCC2C3)CC1 (stereo not shown) [compound 272],xxx (activity was measured to be less than 0.1 μM),> 85%,xxx (activity was measured to be less than 0.1 μM),65 to 85%
CC(=O)N[C@H]1CC2(CCN(C3CCC(c4ccccc4)CC3)CC2)c2ccccc21 (stereo partly shown) [compound 273],xx (activity was measured to be between 0.1 μM and 1.0 μM),> 85%,xxx (activity was measured to be less than 0.1 μM),> 85%
CC(=O)N[C@H]1CC2(CCN([C@H]3C[C@@H]4CC[C@@H]3C4)CC2)c2ccccc21 [compound 274],x (activity was measured to be greater than 1.0 μM),> 85%,xxx (activity was measured to be less than 0.1 μM),65 to 85%
CCOC(=O)N[C@@H]1CC2(CCN(C[C@H]3C[C@H]4CC[C@H]3C4)CC2)c2ccccc21 [compound 275],xx (activity was measured to be between 0.1 μM and 1.0 μM),> 85%,xxx (activity was measured to be less than 0.1 μM),65 to 85%
Clc1ccc2c(c1)C1(CCO2)CCN(C2CCCCC2)CC1 [compound 276],x (activity was measured to be greater than 1.0 μM),65 to 85%,xxx (activity was measured to be less than 0.1 μM),65 to 85%
CCOC(=O)N1CCC(N2CCC3(CC2)CN(C(C)=O)c2ccc(-c4ccccc4C#N)cc23)CC1 [compound 277],x (activity was measured to be greater than 1.0 μM),< 65%,xxx (activity was measured to be less than 0.1 μM),65 to 85%
CCOC(=O)N1C2CCC1CC(N1CCC3(CC1)c1ccccc1C(=O)C3(C)C)C2 (stereo not shown) [compound 278],xx (activity was measured to be between 0.1 μM and 1.0 μM),65 to 85%,xx (activity was measured to be between 0.1 μM and 1.0 μM),65 to 85%
CC(=O)N1CC2(CCN(C3CCN(C(=O)O[C@@H]4CCOC4)CC3)CC2)c2cc(C)ccc21 [compound 279],xx (activity was measured to be between 0.1 μM and 1.0 μM),< 65%,xx (activity was measured to be between 0.1 μM and 1.0 μM),< 65%
CC(=O)N[C@H]1CC2(CCN(C3CCC(C)CC3)CC2)c2ccccc21 (stereo partly shown) [compound 280],x (activity was measured to be greater than 1.0 μM),65 to 85%,x (activity was measured to be greater than 1.0 μM),65 to 85%
CCOC(=O)N1CCC(N2CCC3(CC2)CN(C(=O)C2CCCCC2)c2ccc(F)cc23)CC1 [compound 281],xx (activity was measured to be between 0.1 μM and 1.0 μM),65 to 85%,xx (activity was measured to be between 0.1 μM and 1.0 μM),< 65%
CCOC(=O)N1CCC(N2CCC3(CC2)CN(C(=O)C(C)(C)C)c2ccc(F)cc23)CC1 [compound 282],xx (activity was measured to be between 0.1 μM and 1.0 μM),65 to 85%,xxx (activity was measured to be less than 0.1 μM),< 65%
CCCOC(=O)N1C2CCC1CC(N1CCC3(CC1)COc1ccc(F)cc13)C2 (stereo not shown) [compound 283],x (activity was measured to be greater than 1.0 μM),65 to 85%,xx (activity was measured to be between 0.1 μM and 1.0 μM),65 to 85%
COCCOC(=O)N1CCC(N2CCC3(CC2)CN(C(C)=O)c2ccc(F)cc23)CC1 [compound 284],xx (activity was measured to be between 0.1 μM and 1.0 μM),< 65%,xx (activity was measured to be between 0.1 μM and 1.0 μM),< 65%
CC(C)OC(=O)N1C2CCC1CC(N1CCC3(CCc4ccccc43)CC1)C2 (stereo not shown) [compound 285],x (activity was measured to be greater than 1.0 μM),< 65%,xx (activity was measured to be between 0.1 μM and 1.0 μM),< 65%
CCCCOC(=O)N1C2CCC1CC(N1CCC3(CC1)COc1ccc(F)cc13)C2 (stereo not shown) [compound 286],x (activity was measured to be greater than 1.0 μM),< 65%,xx (activity was measured to be between 0.1 μM and 1.0 μM),< 65%
COC(=O)N1CC2(CCN(C3CC4CCC(C3)N4C(=O)OCC(C)C)CC2)c2cc(F)ccc21 (stereo not shown) [compound 287],x (activity was measured to be greater than 1.0 μM),< 65%,xx (activity was measured to be between 0.1 μM and 1.0 μM),< 65%
Clc1ccc2c(c1)C1(CCO2)CCN(CC2CCOCC2)CC1 [compound 288],x (activity was measured to be greater than 1.0 μM),< 65%,x (activity was measured to be greater than 1.0 μM),< 65%
CC(C)NC(=O)N1C2CCC1CC(N1CCC3(CC1)COc1ccc(F)cc13)C2 (stereo not shown) [compound 289],x (activity was measured to be greater than 1.0 μM),< 65%,xxx (activity was measured to be less than 0.1 μM),< 65%
CCOC(=O)N1CCC(N2CCC3(CC2)CN(C(=O)N2CCOCC2)c2ccc(F)cc23)CC1 [compound 290],x (activity was measured to be greater than 1.0 μM),< 65%,xxx (activity was measured to be less than 0.1 μM),< 65%
CC(=O)NC1CC2(CCN(C3CC4CCC3C4)CC2)c2ccccc21 (stereo not shown) [compound 291],x (activity was measured to be greater than 1.0 μM),65 to 85%,xx (activity was measured to be between 0.1 μM and 1.0 μM),65 to 85%
